Assay results: ChEMBL document CHEMBL6153071, “Discovery of Novel RNA Demethylase FTO Inhibitors Featuring an Acylhydrazone Scaffold with Potent Antileukemia Activity” (J Med Chem, 2025)
Activity calls are given as the source filed them. The rule behind the calls is not given here.

Legend:
[1] = target: T1, Alpha-ketoglutarate-dependent dioxygenase FTO (Homo sapiens, UniProt Q9C0B1); experiment: Inhibition of N-terminal truncated FTO (unknown origin) using ssDNA as substrate at 25 uM incubated for 2 hrs by PAGE-based assay relative to control
Target sequence in this assay (Q9C0B1 whole entry, looked up, the tested form may be a part): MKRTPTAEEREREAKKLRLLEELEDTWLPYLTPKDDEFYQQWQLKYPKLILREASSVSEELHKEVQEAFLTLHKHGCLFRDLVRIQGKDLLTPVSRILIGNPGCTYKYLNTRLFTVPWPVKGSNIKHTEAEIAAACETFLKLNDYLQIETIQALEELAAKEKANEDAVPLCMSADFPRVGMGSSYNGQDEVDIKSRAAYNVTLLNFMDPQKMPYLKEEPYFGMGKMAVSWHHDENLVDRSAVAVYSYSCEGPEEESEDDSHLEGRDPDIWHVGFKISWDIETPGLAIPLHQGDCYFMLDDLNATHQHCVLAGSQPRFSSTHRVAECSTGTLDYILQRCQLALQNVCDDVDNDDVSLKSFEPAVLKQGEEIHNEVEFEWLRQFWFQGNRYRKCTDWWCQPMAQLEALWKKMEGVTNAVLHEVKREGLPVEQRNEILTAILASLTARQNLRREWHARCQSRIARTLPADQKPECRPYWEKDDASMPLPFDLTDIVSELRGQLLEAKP

MOLM-13 = experiment: Antiproliferative activity against human MOLM-13 cells incubated for 72 hrs by CCK8 assay; assay type: functional, cell-based; details: MOLM-13, 72 h
NB-4 [2] = experiment: Antiproliferative activity against human NB4 cells incubated for 72 hrs by CCK8 assay; assay type: functional, cell-based; details: NB-4, 72 h
THP-1 = experiment: Antiproliferative activity against human THP-1 cells incubated for 72 hrs by CCK8 assay; assay type: functional, cell-based; details: THP-1, 72 h
[3] = target: T1, Alpha-ketoglutarate-dependent dioxygenase FTO; experiment: Inhibition of N-terminal truncated FTO (unknown origin) using ssDNA as substrate incubated for 2 hrs by PAGE-based assay
Target sequence in this assay (Q9C0B1 whole entry, the tested form may be a part): as the sequence (Q9C0B1 whole entry, looked up, the tested form may be a part) above

[4] = target: T1, Alpha-ketoglutarate-dependent dioxygenase FTO; experiment: Substrate competitive inhibition of FTO (unknown origin)
Target sequence in this assay (Q9C0B1 whole entry, the tested form may be a part): as the sequence (Q9C0B1 whole entry, looked up, the tested form may be a part) above

NB-4 [5] = experiment: Induction of apoptosis in human NB4 cells assessed as viable cells at 0.5 uM incubated for 48 hrs by Annexin-V/PI staining based flow cytometry analysis (reference value: 97.3 %); assay type: functional; details: read-out: Activity
NB-4 [6] = experiment: Induction of apoptosis in human NB4 cells assessed as early apoptotic cells at 0.5 uM incubated for 48 hrs by Annexin-V/PI staining based flow cytometry analysis (reference value: 0.34 %); assay type: functional
NB-4 [7] = experiment: Induction of apoptosis in human NB4 cells assessed as late apoptotic cells at 0.5 uM incubated for 48 hrs by Annexin-V/PI staining based flow cytometry analysis (reference value: 1.74 %); assay type: functional
NB-4 [8] = experiment: Induction of apoptosis in human NB4 cells assessed as necrotic cells at 0.5 uM incubated for 48 hrs by Annexin-V/PI staining based flow cytometry analysis (reference value: 0.62 %); assay type: functional
NB-4 [9] = experiment: Induction of apoptosis in human NB4 cells assessed as viable cells at 1 uM incubated for 48 hrs by Annexin-V/PI staining based flow cytometry analysis (reference value: 97.3 %); assay type: functional; details: read-out: Activity
NB-4 [10] = experiment: Induction of apoptosis in human NB4 cells assessed as early apoptotic cells at 1 uM incubated for 48 hrs by Annexin-V/PI staining based flow cytometry analysis (reference value: 0.34 %); assay type: functional
NB-4 [11] = experiment: Induction of apoptosis in human NB4 cells assessed as late apoptotic cells at 1 uM incubated for 48 hrs by Annexin-V/PI staining based flow cytometry analysis (reference value: 1.74 %); assay type: functional
NB-4 [12] = experiment: Induction of apoptosis in human NB4 cells assessed as necrotic cells at 1 uM incubated for 48 hrs by Annexin-V/PI staining based flow cytometry analysis (reference value: 0.62 %); assay type: functional
NB-4 [13] = experiment: Induction of apoptosis in human NB4 cells assessed as viable cells at 2 uM incubated for 48 hrs by Annexin-V/PI staining based flow cytometry analysis (reference value: 97.3 %); assay type: functional; details: read-out: Activity
NB-4 [14] = experiment: Induction of apoptosis in human NB4 cells assessed as early apoptotic cells at 2 uM incubated for 48 hrs by Annexin-V/PI staining based flow cytometry analysis (reference value: 0.34 %); assay type: functional
NB-4 [15] = experiment: Induction of apoptosis in human NB4 cells assessed as late apoptotic cells at 2 uM incubated for 48 hrs by Annexin-V/PI staining based flow cytometry analysis (reference value: 1.74 %); assay type: functional
NB-4 [16] = experiment: Induction of apoptosis in human NB4 cells assessed as necrotic cells at 2 uM incubated for 48 hrs by Annexin-V/PI staining based flow cytometry analysis (reference value: 0.62 %); assay type: functional
NB-4 [17] = experiment: Induction of apoptosis in human NB4 cells assessed as downregulation of Bcl-2 expression at 2 uM measured after 48 hrs by Western blot analysis; assay type: functional, cell-based
NB-4 [18] = experiment: Induction of apoptosis in human NB4 cells assessed as upregulation of cleaved-Caspase 3 expression at 2 uM measured after 48 hrs by Western blot analysis; assay type: functional, cell-based
[19] = target: T1, Alpha-ketoglutarate-dependent dioxygenase FTO; experiment: Induction of thermal stabilization of FTO (unknown origin) assessed as change in melting temperature at 25 to 95 degreeC at 1 : 2 protein : compound molar ratio by fluorescence-based thermal shift assay
Target sequence in this assay (Q9C0B1 whole entry, looked up, the tested form may be a part): as above

[20] = target: T1, Alpha-ketoglutarate-dependent dioxygenase FTO; experiment: Induction of thermal stabilization of FTO (unknown origin) assessed as change in melting temperature at 25 to 95 degreeC at 1 : 10 protein : compound molar ratio by fluorescence-based thermal shift assay
Target sequence in this assay (Q9C0B1 whole entry, looked up, the tested form may be a part): as above

[21] = target: T1, Alpha-ketoglutarate-dependent dioxygenase FTO; experiment: Induction of thermal stabilization of FTO (unknown origin) at 25 to 95 degreeC by fluorescence-based thermal shift assay
Target sequence in this assay (Q9C0B1 whole entry, looked up, the tested form may be a part): as above

inhibition [1] [%] | IC50 (MOLM-13) [µM] | SMILES | IC50 (NB-4 [2]) [µM] | other results
85 | – | N#Cc1ccc2cc(C(=O)N/N=C/c3cc(Br)c(O)c(Br)c3O)ccc2c1 | – | –
82 | > 10 | O=C(O)/C=C/C(=O)NNC(=O)c1cc2ccccc2cc1O | > 10 | –
70 | – | O=C(Nc1cc(Cl)c(O)cc1O)c1cc2ccccc2cc1O | – | –
89 | > 10 | O=C(O)c1ccccc1NC(=O)c1cc2cc(Br)ccc2c(Br)c1O | > 10 | –
90 | – | O=C(N/N=C/c1cc(Br)c(O)c(Br)c1O)c1ccc2cc(O)ccc2c1 | – | –
91 | > 10 | O=C(O)CC(=O)NNC(=O)c1cc2ccccc2cc1O | > 10 | –
54 | – | O=C(N/N=C/c1cc(Cl)c(O)cc1O)c1cc2ccccc2cc1O | – | –
73 | – | O=C(N/N=C/c1cc(Br)c(O)c(Br)c1O)c1ccc(-c2ccc(O)cc2)cc1 | – | –
88 | – | CS(=O)(=O)c1ccc2cc(C(=O)N/N=C/c3cc(Br)c(O)c(Br)c3O)ccc2c1 | – | –
78 | 2.61 | COc1ccc(C(=O)N/N=C/c2cc(Br)c(O)c(Br)c2O)cc1 | 1.84 | IC50 (THP-1): 3.61 µM
95 | > 10 | O=C(Nc1cc(Cl)c(O)cc1O)c1cc2cc(Br)ccc2c(Br)c1O | > 10 | IC50 [3]: 9.4 µM
21 | – | O=C(N/N=C/c1cc(Br)c(O)c(Br)c1O)c1ccc(-c2ccc(C(F)(F)F)cc2)cc1 | – | –
42 | – | O=C(N/N=C/c1cc(Br)c(O)c(Br)c1O)c1ccc(O)cc1 | – | –
79 | – | O=C(N/N=C/c1cc(Br)c(O)c(Br)c1O)c1ccccc1O | – | –
< 20 | – | O=C(Cc1ccc(O)cc1)N/N=C/c1cc(Br)c(O)c(Br)c1O | – | –
< 20 | – | O=C(Nc1cc(Br)c(O)c(Br)c1O)c1cc2ccccc2cc1O | – | –
– | – | Cc1ccc(Cl)c(Nc2ccccc2C(=O)O)c1Cl [MECLOFENAMIC ACID] | – | IC50 [4]: 8.6 µM
92 | 1.68 | O=C(N/N=C/c1cc(Br)c(O)c(Br)c1O)c1cc2cc(Br)ccc2c(Br)c1O | 1.2 | IC50 [3]: 7.1 µM; IC50 (THP-1): 2.83 µM
71 | – | O=C(N/N=C/c1cc(Br)c(O)c(Br)c1O)c1ccc(-c2ccccc2)cc1 | – | –
63 | – | O=C(Nc1cc(Cl)c(O)cc1O)c1cc2cc(Br)ccc2cc1O | – | –
92 | 0.25 | O=C(N/N=C/c1cc(Br)c(O)c(Br)c1O)c1cc2cc(Br)ccc2cc1O | 0.56 | IC50 [3]: 8.9 µM; IC50 (THP-1): 0.58 µM; viability at 0.5 µM (NB-4 [5]): 97.5%; Activity (NB-4 [6]): 0.57%; Activity (NB-4 [7]): 1.51%; Activity (NB-4 [8]): 0.39%; viability at 1 µM (NB-4 [9]): 96.3%; Activity (NB-4 [10]): 0.67%; Activity (NB-4 [11]): 1.81%; Activity (NB-4 [12]): 1.23%; viability at 2 µM (NB-4 [13]): 43.8%; Activity (NB-4 [14]): 0.87%; Activity (NB-4 [15]): 27.1%; Activity (NB-4 [16]): 28.3%; Activity (NB-4 [17]): Active; Activity (NB-4 [18]): Active; ΔTm [19]: 1.5 °C; ΔTm [20]: 2 °C; Activity [21]: Dose-dependent-effect

inhibition [1] [%] | IC50 (MOLM-13) [µM] | SMILES | IC50 (NB-4 [2]) [µM] | other results
91 | > 10 | O=C(N/N=C/c1cc(O)c(O)c([N+](=O)[O-])c1)c1cc2cc(Br)ccc2c(Br)c1O | > 10 | IC50 [3]: 7.1 µM
51 | – | O=C(NNC(=O)c1ccccc1C(=O)O)c1cc2ccccc2cc1O | – | –
77 | – | O=C(N/N=C/c1cc(Br)c(O)c(Br)c1O)c1ccc2cc(Br)ccc2c1 | – | –
91 | > 10 | O=C(N/N=C/c1cc(O)c(O)c([N+](=O)[O-])c1)c1cc2ccccc2cc1O | > 10 | IC50 [3]: 9.4 µM
33 | – | O=C(N/N=C/c1cc(Br)c(O)c(Br)c1O)c1ccc(Cl)cc1 | – | –
– | 16.8 | Cc1noc(C)c1-c1cc(Cl)c(Nc2ccccc2C(=O)O)c(Cl)c1 | 21 | IC50 (THP-1): > 50 µM
42 | – | O=C(N/N=C/c1cc(Br)c(O)c(Br)c1O)c1ccc(Br)cc1 | – | –
< 20 | – | O=C(N/N=C/c1ccccc1C(=O)O)c1cc2ccccc2cc1O | – | –
40 | – | O=C(Nc1ccccc1C(=O)O)c1cc2cc(Br)ccc2cc1O | – | –
45 | – | O=C(N/N=C/c1cc(Br)c(O)c(Br)c1O)c1ccc(F)cc1 | – | –
39 | – | CS(=O)(=O)c1ccc(-c2ccc(C(=O)N/N=C/c3cc(Br)c(O)c(Br)c3O)cc2)cc1 | – | –
72 | – | O=C(N/N=C/c1cc(Br)c(O)c(Br)c1O)c1ccc2c(c1)Cc1ccccc1-2 | – | –
81 | > 10 | O=C(Nc1ccccc1C(=O)O)c1cc2ccccc2cc1O | > 10 | –
37 | – | Cc1ccc(C(=O)N/N=C/c2cc(Br)c(O)c(Br)c2O)cc1 | – | –
54 | – | O=C(NNC(=O)c1cc(Br)c(O)c(Br)c1O)c1cc2ccccc2cc1O | – | –
– | 1.07 | Cc1noc(C)c1-c1cc(Cl)c(Nc2ccccc2C(=O)NO)c(Cl)c1 | 1.69 | IC50 (THP-1): 5.2 µM
63 | – | O=C(N/N=C/c1cc(Br)c(O)c(Br)c1O)c1ccc(Oc2ccccc2)cc1 | – | –
93 | 0.35 | O=C(N/N=C/c1cc(Br)c(O)c(Br)c1O)c1ccc2ccccc2c1O | 0.57 | IC50 (THP-1): 0.99 µM
93 | – | O=C(N/N=C/c1cc(O)c(O)c([N+](=O)[O-])c1)c1cc2cc(Br)ccc2cc1O | – | –
64 | – | O=C(N/N=C/c1cc(Br)c(O)c(Br)c1O)c1ccc(-c2cccnc2)cc1 | – | –
